# Measurements reported in ChEMBL document CHEMBL3739277, “Design, synthesis, and antibacterial evaluation of novel azolylthioether quinolones as MRSA DNA intercalators” (2015).
# Key:
# Assay type in all cases: functional
# Cyberlindnera jadinii = experiment: Antifungal activity against Candida utilis ATCC9950 assessed as growth inhibition incubated at 35 degC for 24 hrs by micro broth dilution method; conditions: Williopsis jadinii, ATCC9950, 24 h
# Candida albicans = experiment: Antifungal activity against Candida albicans ATCC10231 assessed as growth inhibition incubated at 35 degC for 24 hrs by micro broth dilution method; conditions: ATCC10231, 24 h
# [1] = Antifungal activity against Candida mycoderma ATCC9888 assessed as growth inhibition incubated at 35 degC for 24 hrs by micro broth dilution method; conditions: Kregervanrija fluxuum
# Saccharomyces cerevisiae = experiment: Antifungal activity against Saccharomyces cerevisiae ATCC9763 assessed as growth inhibition incubated at 35 degC for 24 hrs by micro broth dilution method; conditions: ATCC9763, 24 h
# Aspergillus flavus = experiment: Antifungal activity against Aspergillus flavus ATCC204304 assessed as growth inhibition incubated at 35 degC for 24 hrs by micro broth dilution method; conditions: ATCC204304, 24 h
# Micrococcus luteus = experiment: Antibacterial activity against Micrococcus luteus ATCC4698 assessed as growth inhibition incubated at 37 degC for 24 hrs by micro broth dilution method; conditions: ATCC4698, 24 h
# [2] = Antibacterial activity against Bacillus proteus ATCC13315 assessed as growth inhibition incubated at 37 degC for 24 hrs by micro broth dilution method; conditions: ATCC13315, 24 h
# Escherichia coli = experiment: Antibacterial activity against Escherichia coli JM109 assessed as growth inhibition incubated at 37 degC for 24 hrs by micro broth dilution method; conditions: JM109, 24 h
# Pseudomonas aeruginosa = experiment: Antibacterial activity against Pseudomonas aeruginosa ATCC27853 assessed as growth inhibition incubated at 37 degC for 24 hrs by micro broth dilution method; conditions: ATCC27853, 24 h
# [3] = Antibacterial activity against Eberthella typhosa ATCC14028 assessed as growth inhibition incubated at 37 degC for 24 hrs by micro broth dilution method; conditions: ATCC14028, 24 h
# Bacillus subtilis = experiment: Antibacterial activity against Bacillus subtilis ATCC6633 assessed as growth inhibition incubated at 37 degC for 24 hrs by micro broth dilution method; conditions: ATCC6633, 24 h
# Staphylococcus aureus [4] = experiment: Antibacterial activity against Staphylococcus aureus ATCC25923 assessed as growth inhibition incubated at 37 degC for 24 hrs by micro broth dilution method; conditions: ATCC25923, 24 h
# Staphylococcus aureus [5] = experiment: Antibacterial activity against methicillin resistant Staphylococcus aureus N315 assessed as growth inhibition incubated at 37 degC for 24 hrs by micro broth dilution method; conditions: N315, 24 h
Compound,MIC80 (Cyberlindnera jadinii) [µg/mL],MIC80 (Candida albicans) [µg/mL],MIC80 [1] [µg/mL],MIC80 (Saccharomyces cerevisiae) [µg/mL],MIC80 (Aspergillus flavus) [µg/mL],MIC (Micrococcus luteus) [µg/mL],MIC [2] [µg/mL],MIC (Escherichia coli) [µg/mL],MIC (Pseudomonas aeruginosa) [µg/mL],MIC [3] [µg/mL],MIC (Bacillus subtilis) [µg/mL],MIC (Staphylococcus aureus [4]) [µg/mL],MIC (Staphylococcus aureus [5]) [µg/mL]
OC(Cn1cncn1)(Cn1cncn1)c1ccc(F)cc1F [FLUCONAZOLE],8,1,4,16,256,,,,,,,,
O=C(O)c1cn(C2CC2)c2cc(N3CCN(CC(O)CSc4ncn(Cc5ccc(Cl)cc5Cl)n4)CC3)c(F)cc2c1=O (stereo not drawn),4,32,16,64,16,2,2,2,4,1,2,1,1
O=C(O)c1cn(C2CC2)c2c(Cl)c(N3CCC(NCC(O)CSc4ncn(Cc5ccc(Cl)cc5Cl)n4)C3)c(F)cc2c1=O (stereo not drawn),16,16,4,64,64,4,0.5,1,1,1,0.5,2,8
O=C(O)c1cn(C2CC2)c2cc(N3CCN(CC4CO4)CC3)c(F)cc2c1=O (stereo not drawn),2,2,1,1,1,2,4,1,2,2,8,4,1
O=C(O)c1cn(C2CC2)c2cc(N3CCN(CC(O)CSc4ncn(Cc5ccc(Cl)c(Cl)c5)n4)CC3)c(F)cc2c1=O (stereo not drawn),2,16,8,32,16,1,0.5,1,2,0.5,0.5,0.5,1
CCn1cc(C(=O)O)c(=O)c2cc(F)c(N3CCN(CC(O)CSc4ncn(Cc5ccc(Cl)c(Cl)c5)n4)CC3)cc21 (stereo not drawn),128,64,128,32,16,32,8,16,64,64,128,4,8
CCn1cc(C(=O)O)c(=O)c2cc(F)c(N3CCNCC3)cc21 [NORFLOXACIN],,,,,,2,8,2,4,1,1,2,2
O=C(O)c1cn(C2CC2)c2cc(N3CCNCC3)c(F)cc2c1=O [CIPROFLOXACIN],,,,,,,1,,1,1,1,,
O=C(O)c1cn(C2CC2)c2c(Cl)c(N3CCC(NCC(O)CSc4ncn(Cc5ccc(Cl)c(Cl)c5)n4)C3)c(F)cc2c1=O (stereo not drawn),8,0.5,1,16,8,0.5,0.5,1,0.5,0.5,0.5,0.5,0.5
Cn1nnnc1SCC(O)CNC1CCN(c2c(F)cc3c(=O)c(C(=O)O)cn(C4CC4)c3c2Cl)C1 (stereo not drawn),128,2,1,1,1,1,1,1,1,1,1,2,2
